# Reference: patent US20020086876A1, “Treatment of anti-depression drug-induced sexual dysfunction with apomorphine” (priority 2000, published 2002)
# Test system: sexual dysfunction in male patients taking selective serotonin reuptake inhibitors
# Test: Crossover home-use trial of sublingual apomorphine in male patients taking SSRIs (sexual function questionnaire)
# Format: in vivo, human (male patients)
# Conditions: male patients on SSRI's
# Method: A crossover study of 1500 patients in a home-use trial of apomorphine on male patients was performed.
# In the crossover study, a 2-4 week baseline period was used to evaluate subjects. After this time, during an initial four week treatment period, subjects received either a placebo or apomorphine, without knowing whether or not they had received the active medication. The dosage was either 2, 4, 5 or 6 mg. This initial treatment period was followed by a 24-96 hour washout period, in which no medication was taken. Subsequently, a second four week treatment period, subjects who previously had received apomorphine, were given a placebo, and subjects who previously had received the placebo were given apomorphine. Subject were to attempt coitus once each week after taking a single tablet of apomorphine sublingually. After each attempt, the subject and their partner completed a sexual function questionnaire which was later evaluated and used for final statistical analysis. In the analysis, the data for patients receiving 2, 4, 5 or 6 mg dosages was pooled.
smiles,measurement,setting,value
"CN1CCc2cccc3c2[C@H]1Cc1ccc(O)c(O)c1-3 [apomorphine, (R)-5,6,6a,7-tetrahydro-6-methyl-4H-dibenzo-[de,g]quinoline-10,11-diol]","patients on SSRI drugs able to have intercourse after apomorphine, relative to placebo",apomorphine versus placebo,twice as many patients on SSRI drugs were able to have intercourse
same,attempts successful: attempt resulted in intercourse,"single sublingual tablet, pooled 2, 4, 5 or 6 mg dosages, four week treatment period, placebo 23.4%",47.6%
same,attempts successful: erection firm enough for intercourse attained,"single sublingual tablet, pooled 2, 4, 5 or 6 mg dosages, four week treatment period, placebo 26%",48%
